Results from patent US20040209934A1, “Protein phosphate inhibitors” (priority 2001, published 2004).
Where two headings read alike, the source gives them in different places. *1 amine or outer side, *2 acyl side, *3 side chain or, on linkers, in order; H or OH if unused. Where a SMILES comes first, the peptide text is derived from it. Bridges are numbered along the chain shown (N, C = ends). [ ]: non-standard residue; d: D form. Adda = CO[C@@H](Cc1ccccc1)[C@@H](C)/C=C(C)/C=C/[C@H](N[*:1])[C@H](C)C(=O)[*:2]; dAsp(3S-Me) = C[C@H](C(=O)[*:3])[C@@H](N[*:1])C(=O)[*:2]; d(γGlu) = O=C(O)[C@@H](CCC(=O)[*:2])N[*:1]; NMeDha = C=C(NC)C(=O)O

Assays:
PP1 [1] = target: T1, PP1 (Homo sapiens, UniProt P62136); details: read-out: PP1 protein phosphatase inhibition (IC50), cited from earlier work
PP2A = PP2A (Homo sapiens, UniProt P67775); details: read-out: PP2A protein phosphatase inhibition (IC50), cited from earlier work
[2] = tested on: HL60 (human leukaemia, p53 nul); experiment: cells; format: cell-based
Description: (§1) The MTT assay can be used assess cytotoxicity.

[3] = tested on: HT29 (human colon carcinoma, p53 mt); experiment: cells; format: cell-based
Description: as §1

[4] = tested on: L1210 (murine leukaemia, p53 mt); experiment: cells; format: cell-based; details: Mus musculus, Table 3, read-out: Cytotoxicity IC50, L1210
Description: as §1

[5] = tested on: SW480 (human colon carcinoma, p53 wt); experiment: cells; format: cell-based; details: Table 3, read-out: Cytotoxicity IC50, SW480
Description: as §1

PP1 [6] = target: T1, PP1; experiment: Protein phosphatase assay with [32P]-glycogen phosphorylase a as substrate, PP1; format: biochemical; set-up: made in house
Experimental: (§2) Protein phosphatase assays were carried out essentially as described (Collins, E.; Sim, A. T. R.; Methods in Molecular Biology 1998, 93, 79-102) using [^32P]-glycogen phosphorylase a as substrate and recombinant PP1 (Bernt, N. Methods in Molecular Biology, 1998, 93, 67-78) or partially purified (chicken skeletal muscle) PP2A catalytic subunits (Mackintosh, C. In Protein Phosphorylation: A Practical Approach, Ed D G Hardie, IRL, 1993). Briefly, enzyme activity was measured at 30 ° C. in a buffer (final volume of […]) containing 50 mM Tris-HCl (pH 7.5), 1 mM EGTA, 0.1 mM EDTA, 5 mM Caffeine, 0.1% mercaptoethanol, 0.3 mg/mL BSA. The concentration of PP1 or PP2A used was such that the reaction was limited to 15% dephosphorylation to ensure linearity. The reaction was started with the addition of […] [^32P]-glycogen phosphorylase a and terminated after 20 minutes by the addition of […] ice-cold 70% TCA. After 10 minutes on ice the sample was centrifuged and a […] aliquot of the supematant was removed for scintillation counting of the [^32p] released during the reaction.

HCT116 cells = experiment: Cell cycle analysis (propidium iodide, flow cytometry); format: cell-based, human; details: Cantharidin 25 μM, 6 h
Description: The distribution of cells into the various phases of the cell cycle can be analysed by measuring the DNA content of the cells, via propidium iodide staining and subsequent flow cytometric analysis. Thus senescent cells (G0) and cells in the first gap (G1) of the cell cycle will have approximately half of the DNA content of cells about to under go mitosis (G2+M), while those cells synthesising DNA (S-phase) will have an intermediary DNA content. Using this technology, the effect of these new drugs on cells in the various phases of the cycle can be determined.

[7] = tested on: ten difference cancer cell lines of ovarian, bone, colon and baematopoietic origin; experiment: cells; details: read-out: Cytotoxicity IC50 values, range over ten cancer cell lines
[8] = tested on: WiDr (human colon carcinoma, p53 mt); experiment: cells; format: cell-based
Description: as §1

[9] = tested on: 143B (143BTK-, human oesteosarcoma); experiment: cells; details: 72 h, read-out: Cytotoxicity IC50, 143B Ostesarcoma
Description: (§3) The cell lines chosen for study include both normal (non-cancer) and tumour-derived cell lines that represent both haematopoietic and solid tumor types with varying cell cycle control mechanisms (ie p53 status); CCD-18Co (normal human colon), L1210 (murine leukaemia, p53 mt), HL60 (human leukaemia, p53 nul), A2780 (human ovarian carcinoma, p53 wt), ADDP (cisplatin resistant A2780 cells, p53 mt), HCT116 (human colon carcinoma, p53 wt), SW480 (human colon carcinoma, p53 wt), WiDr (human colon carcinoma, p53 mt), HT29 (human colon carcinoma, p53 mt) and 143BTK-(human oesteosarcoma) cells.
(§4) The MTT assay can be used assess cytotoxicity. This assay determines cell viability by the ability of mitochondrial dehydrogenase to produce formazan crystals from 3-(4,5-dimethylthiazol-2-yl)2,5-diphenyltetrazolium bromide. The viable cell number/well is directly proportional to the production of formazan, which following solubilization, can be measured spectrophotometrically (540 nm). […] This technique is also used by the NCI(National Cancer Institute, USA) to screen for new anticancer agents. The MTT assay may be performed 72 h after exposure of the cells to varying doses of the phosphatase inhibitors. Since these agents are likely to interfere with the cell cycle it is important to test the cytotoxicity for at least two-three cell divisions.

[10] = tested on: A2780 (human ovarian carcinoma, p53 wt); experiment: cells; details: A2780, 72 h, read-out: Cytotoxicity IC50, A2780 Ovarian
Description: as §3, §4

[11] = target: partially purified (chicken skeletal muscle) PP2A catalytic subunits (Gallus gallus, UniProt P48463); format: biochemical
Experimental: as §2

[12] = naturally occurring toxins, background Table 1
[13] = HL-60, Table 3, read-out: Cytotoxicity IC50, HL60
[14] = HT-29, Table 3, read-out: Cytotoxicity IC50, HT29
[15] = Table 2 cantharimides, average of three experiments in triplicate, read-out: PP1 Inhibition IC50
[16] = Table 3 summary, read-out: PP1 Inhibition
[17] = HL-60, 72 h exposure, background Table 2, read-out: Cytotoxicity IC50, HL60 Leukaemia
[18] = HT-29, 72 h exposure, background Table 2, read-out: Cytotoxicity IC50, HT29 Colon
[19] = 72 h exposure, background Table 2, read-out: Cytotoxicity IC50, WiDr Colon

Chain of PP2A (P67775 whole entry): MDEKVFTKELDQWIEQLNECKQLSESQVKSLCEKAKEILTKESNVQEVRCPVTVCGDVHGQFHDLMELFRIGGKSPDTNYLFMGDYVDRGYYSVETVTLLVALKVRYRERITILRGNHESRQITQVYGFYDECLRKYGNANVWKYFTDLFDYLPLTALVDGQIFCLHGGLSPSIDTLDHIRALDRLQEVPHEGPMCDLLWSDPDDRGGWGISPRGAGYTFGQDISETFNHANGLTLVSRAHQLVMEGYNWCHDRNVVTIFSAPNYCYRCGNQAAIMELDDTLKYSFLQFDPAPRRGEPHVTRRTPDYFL
T1 sequence (P62136 whole entry): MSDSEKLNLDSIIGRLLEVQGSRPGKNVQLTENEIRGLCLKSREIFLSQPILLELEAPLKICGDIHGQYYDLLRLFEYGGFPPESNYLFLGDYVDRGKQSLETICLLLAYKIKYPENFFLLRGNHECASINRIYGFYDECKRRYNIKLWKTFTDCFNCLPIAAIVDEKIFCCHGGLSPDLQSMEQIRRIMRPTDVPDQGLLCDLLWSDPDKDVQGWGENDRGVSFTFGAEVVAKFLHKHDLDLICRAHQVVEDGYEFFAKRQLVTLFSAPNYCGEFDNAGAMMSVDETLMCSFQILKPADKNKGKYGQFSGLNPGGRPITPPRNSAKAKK
Chain of partially purified (chicken skeletal muscle) PP2A catalytic subunits (P48463 whole entry): as the sequence (P67775 whole entry) above, with D2E, V5S, T7A, K21R, K29R, R108P counted along it

SMILES: C[C@@](O)(/C=C/[C@H]1CC=CC(=O)O1)[C@@H](C[C@@H](O)\C=C/C=C\C=C\CO)OP(=O)(O)O [Fostriecin]
- IC50 (PP1 [1]; [12]): 131 µM
- IC50 (PP2A; [12]): 3.4 nM

SMILES: O=C(O)[C@@H](Cc1cnc[nH]1)N1C(=O)C2C3CCC(O3)C2C1=O (stereo partly shown) [Compound 14]
- IC50 [2, 13]: 21 ± 13 µM
- IC50 [3, 14]: 28 ± 9 µM
- IC50 [4]: 6 ± 1 µM
- IC50 [5]: 32 ± 12 µM
- IC50 (PP1 [6]; [15]): 3.22 ± 0.7 µM
- IC50 (PP1 [6]; [16]): 3.22 ± 0.7 µM

SMILES: CCOC(=O)C1C(C(=O)O)[C@@H]2CC[C@H]1O2 (stereo partly shown) [R = CH3CH2]
- IC50 (PP1 [6]; read-out: PP1 IC50): 2.96 µM

SMILES: O=C(O)[C@@H](Cc1c[nH]c2ccccc12)N1C(=O)C2C3CCC(O3)C2C1=O (stereo partly shown) [Compound 12]
- IC50 (PP1 [6]; read-out: PP1 IC50): 770 ± 146 µM

SMILES: C[C@@H](C(=O)O)N1C(=O)C2C3CCC(O3)C2C1=O (stereo partly shown) [Compound 5]
- IC50 (PP1 [6]; [15]): > 1000 µM

SMILES: CC(C)C[C@@H](C(=O)O)N1C(=O)C2C3CCC(O3)C2C1=O (stereo partly shown) [Compound 9]
- IC50 (PP1 [6]; [15]): > 1000 µM

SMILES: C=C1C(=O)N[C@H](C)C(=O)N[C@@H](CC(C)C)C(=O)N[C@@H](C(=O)O)[C@H](C)C(=O)N[C@@H](CCCNC(=N)N)C(=O)N[C@@H](/C=C/C(C)=C/[C@H](C)[C@H](Cc2ccccc2)OC)[C@H](C)C(=O)N[C@@H](C(=O)O)CCC(=O)N1C [Microcystin LR] (R[Adda][d(γGlu)][NMeDha][dA]L[dAsp(3S-Me)]-OH; lactam N-7)
- IC50 (PP1 [1]): 0.0017 µM
- IC50 (PP2A): 0.04 nM

SMILES: O=C(O)C(Cc1ccc(O)cc1)N1C(=O)C2C3CCC(O3)C2C1=O (single isomer, unassigned) [Compound 16]
- IC50 (PP1 [6]; [15]): 101 ± 34 µM

SMILES: COC[C@@H]([C@H](O)[C@H](O)C(=O)NCC[C@H](C)c1nc(/C=C/C[C@@H]2O[C@]3(C[C@@H](O)[C@@H]2C)O[C@H]([C@H](C[C@H](O)[C@H](C)[C@H](O)[C@H](C)/C=C(C)/C(C)=C/C=C/C(C)=C\C#N)OC)[C@H](OP(=O)(O)O)C3(C)C)co1)N(C)C [Calyculin A]
- IC50 (PP1 [1]): 0.002 µM
- IC50 (PP2A; [12]): 0.5 nM

SMILES: C[C@@]12C(=O)OC(=O)[C@]1(C)[C@H]1CC[C@@H]2O1 [Compound 1, cantharidin]
- Cell cycle distribution, S-phase (HCT116 cells): significant increased S-phase population
- IC50 [7]: 6 to 18 µM

SMILES: O=C(O)[C@H](Cc1ccccc1)N1C(=O)C2C3CCC(O3)C2C1=O (stereo partly shown) [Compound 7]
- IC50 (PP1 [6]; [15]): > 1000 µM

SMILES: NC(=O)CC[C@H](C(=O)O)N1C(=O)C2C3CCC(O3)C2C1=O (stereo partly shown) [Compound 18]
- IC50 (PP1 [6]; [15]): 95 ± 5 µM

SMILES: CC[C@@H](C)[C@H](C(=O)O)N1C(=O)C2C3CCC(O3)C2C1=O (stereo partly shown) [Compound 10]
- IC50 (PP1 [6]; [15]): > 1000 µM

SMILES: C=C1[C@@H](O)[C@@H]2O[C@]3(CC[C@H](/C=C/[C@@H](C)[C@@H]4CC(C)=C[C@@]5(O[C@H](C[C@@](C)(O)C(=O)O)CC[C@H]5O)O4)O3)CC[C@H]2O[C@@H]1[C@@H](O)C[C@H](C)[C@H]1O[C@@]2(CCCCO2)CC[C@H]1C [Okadaic acid]
- IC50 (PP2A; [12]): 0.51 nM

SMILES: CC(C)C[C@H](C(=O)O)N1C(=O)C2C3CCC(O3)C2C1=O (stereo partly shown) [Compound 8]
- IC50 (PP1 [6]; [15]): > 1000 µM

SMILES: O=C1OC(O)[C@@H]2[C@H]1[C@H]1CC[C@@H]2O1 (stereo partly shown)
- IC50 [2, 17]: 393 ± 103 µM
- IC50 [3, 18]: 14 ± 0.3 µM
- IC50 [8, 19]: 15 ± 3 µM
- IC50 [9]: 454 ± 50 µM
- IC50 [10]: 333 ± 55 µM

SMILES: CC[C@H](C)[C@@H](C(=O)O)N1C(=O)C2C3CCC(O3)C2C1=O (stereo partly shown) [Compound 11]
- IC50 (PP1 [6]; [15]): > 1000 µM

SMILES: CSCC[C@@H](C(=O)O)N1C(=O)C2C3CCC(O3)C2C1=O (stereo partly shown) [Compound 19]
- IC50 (PP1 [6]; [15]): > 1000 µM

SMILES: CCCOC(=O)C1C(C(=O)O)[C@@H]2CC[C@H]1O2 (stereo partly shown)
- IC50 ([2]; HL-60, 72 h, read-out: Cytotoxicity IC50, HL60 Leukaemia): 270 ± 15 µM
- IC50 ([3]; HT-29, 72 h, read-out: Cytotoxicity IC50, HT29 Colon): 15 ± 5 µM
- IC50 ([8]; 72 h, read-out: Cytotoxicity IC50, WiDr Colon): 33 ± 6 µM
- IC50 [9]: 450 ± 50 µM
- IC50 [10]: 110 ± 10 µM

SMILES: C[C@H](C(=O)O)N1C(=O)C2C3CCC(O3)C2C1=O (stereo partly shown) [Compound 4]
- PP2A inhibition, in words [11]: marginal activity
- IC50 (PP1 [6]; [15]): > 1000 µM

SMILES: C[C@@]12C(=O)OC(=O)[C@]1(C)[C@H]1CC[C@@H]2O1 [drawing 2]
- IC50 [2, 17]: 10 ± 2 µM
- IC50 [3, 18]: 6.5 ± 0.5 µM
- IC50 [8, 19]: 6.1 ± 0.5 µM
- IC50 [9]: 10 ± 1 µM
- IC50 [10]: 10 ± 2 µM

SMILES: O=C(O)[C@@H](Cc1ccccc1)N1C(=O)C2C3CCC(O3)C2C1=O (stereo partly shown) [Compound 6]
- IC50 (PP1 [6]; [15]): > 1000 µM

SMILES: O=C(O)[C@H](Cc1c[nH]c2ccccc12)N1C(=O)C2C3CCC(O3)C2C1=O (stereo partly shown) [Compound 13]
- IC50 (PP1 [6]; read-out: PP1 IC50): 312 ± 153 µM

SMILES: CO[C@H]([C@H](O)CC(=O)[C@@H](C)[C@@H](O)CC[C@@H](C)[C@@H]1O[C@]2(CC[C@@H](C)[C@H](CC[C@H](C)C(C)=O)O2)CC[C@@H]1C)[C@H](OC(=O)C[C@@H](O)C1=C(C)C(=O)OC1=O)C(C)C [Tautomycin]
- IC50 (PP1 [1]; [12]): 0.0003 µM
- IC50 (PP2A; [12]): 1 nM

SMILES: O=C(O)[C@H](Cc1cnc[nH]1)N1C(=O)C2C3CCC(O3)C2C1=O (stereo partly shown) [Compound 15]
- IC50 [2, 13]: 55 ± 24 µM
- IC50 [3, 14]: 28 ± 10 µM
- IC50 [4]: 30 ± 14 µM
- IC50 [5]: 61 ± 30 µM
- IC50 (PP1 [6]; [15]): 2.82 ± 0.6 µM
- IC50 (PP1 [6]; [16]): 2.82 ± 0.6 µM

SMILES: O=C1OC(=O)[C@H]2[C@@H]1[C@@H]1CC[C@H]2O1 [Compound 3, norcantharidin, reference compound]
- IC50 (PP1 [6]; [15]): 5.31 ± 0.36 µM

SMILES: O=C(O)C(Cc1ccc(O)cc1)N1C(=O)C2C3CCC(O3)C2C1=O (single isomer, unassigned) [Compound 17]
- IC50 (PP1 [6]; [15]): 570 ± 330 µM
